Reference: patent publication US9980943B2, “Methods of treating muscular dystrophy” (BOARD OF REGENTS OF THE NEVADA SYSTEM OF HIGHER EDUCATION, …, priority 2013, dated 2018)
Where two headings read alike, the source gives them in different places.

Tested on: α7 integrin (LacZ reporter in α7LacZ+/− myoblasts)
Assay: qHTS of the LOPAC library and MLSMR (online screen, α7LacZ+/− myoblasts)
Conditions: for activation at 0.307 µM / activation at 1.53 µM / activation at 7.66 µM / activation at 38.3 µM / Emax / EC50: Mus musculus, Myoblast; for activation at 0.307 µM: read-out: Activity at 0.307 uM [%] **; for activation at 1.53 µM: read-out: Activity at 1.530 uM [%] **; for activation at 7.66 µM: read-out: Activity at 7.660 uM [%] **; for activation at 38.3 µM: read-out: Activity at 38.30uM [%] **; for EC50: read-out: Fit LogAC50 (converted); for Score: Table 8 Compound data
[1] = 48 h, read-out: Fit Infinite Activity [%]

`CCS(=O)(=O)N1CCCC(C(=O)c2ccc(OC)cc2C)C1` (centres unmarked) [Compound 83] gave an activation at 0.307 µM (48 h) of -13.5%, an activation at 1.53 µM (48 h) of -10.6% and an activation at 7.66 µM (48 h) of 41.5%. For the same molecule, the activation at 38.3 µM (48 h) was 149%, the Emax [1] was 162% and the EC50 was 11.2 µM. The Emax (read-out: Max Response [%]) was 149%.
`CCCS(=O)(=O)N1CCCC(C(=O)c2cccc(Cl)c2)C1` (centres unmarked) [Compound 84] was tested, and the activation at 0.307 µM (48 h) was -5.29%, the activation at 1.53 µM (48 h) was 11% and the activation at 7.66 µM (48 h) was 59.7%. It also gave an activation at 38.3 µM (48 h) of 102%, an Emax [1] of 114% and an EC50 of 6.31 µM. The Emax (read-out: Max Response [%]) was 102%.
In the case of `CC(C)(C)c1ccc(C(=O)OCC(=O)Nc2sc3c(c2C#N)CCC3)cc1` [Compound 85], the activation at 0.307 µM (48 h) is reported as 3.25%, the activation at 1.53 µM (48 h) is reported as 13.3% and the activation at 7.66 µM (48 h) is reported as 71.6%. The activation at 38.3 µM (48 h) was 101%, the Emax [1] was 103% and the EC50 was 5.01 µM. The Emax (read-out: Max Response [%]) was 101%.
Work on `Cc1ccc(C2=C(CC(=O)O)C(=O)CC2)cc1` [Compound 86] yielded an activation at 0.307 µM (48 h) of 10.4%, an activation at 1.53 µM (48 h) of 28.9% and an activation at 7.66 µM (48 h) of 57.4%. For the same molecule, the activation at 38.3 µM (48 h) was 80.4%, the Emax [1] was 94.7% and the EC50 was 4.47 µM. The Emax (read-out: Max Response [%]) was 80.4%.
`CN(C)c1ccnc2sc(C(N)=O)c(N)c12` [Compound 87] gave an activation at 0.307 µM (48 h) of 20.9%, an activation at 1.53 µM (48 h) of 26.5% and an activation at 7.66 µM (48 h) of 69.1%. It also gave an activation at 38.3 µM (48 h) of 86.5%, an Emax [1] of 87.8% and an Emax (read-out: Max Response [%]) of 86.5%.
For `C[C@H]1CNC(=O)c2c(C(=O)Nc3ccc(CNC(=O)OC(C)(C)C)cc3)ncn21` [Compound 88], the activation at 0.307 µM (48 h) was 12.6%, the activation at 1.53 µM (48 h) was 21.8% and the activation at 7.66 µM (48 h) was 50.5%. It also gave an activation at 38.3 µM (48 h) of 81.8%, an Emax [1] of 98.4% and an EC50 of 8.91 µM. For the same molecule, the Emax (read-out: Max Response [%]) was 81.8%.
`CCCN(C(=O)c1ccc(S(=O)(=O)N2CCCC2)cc1)C1CCS(=O)(=O)C1` (centres unmarked) [Compound 89] gave an activation at 0.307 µM (48 h) of -9.99%, an activation at 1.53 µM (48 h) of -0.297% and an activation at 7.66 µM (48 h) of 45.6%. It also gave an activation at 38.3 µM (48 h) of 74.1%, an Emax [1] of 75.3% and an EC50 of 5.01 µM. The Emax (read-out: Max Response [%]) was 74.1%.
`CN(CC(=O)Nc1cccc(F)c1)C(=O)c1ccc(-c2ccc(Cl)cc2)o1` [Compound 90] was tested, and the activation at 0.307 µM (48 h) was 2.83%, the activation at 1.53 µM (48 h) was 8.12% and the activation at 7.66 µM (48 h) was 27.2%. The activation at 38.3 µM (48 h) was 146%, the Emax [1] was 146% and the EC50 was 11.2 µM. The Emax (read-out: Max Response [%]) was 146%.
`Cc1ccc(S(=O)(=O)N2CN(CC3CCCO3)c3nc4ccccc4nc32)c(C)c1` (centres unmarked) [Compound 91] showed an activation at 0.307 µM (48 h) of -19.2%, an activation at 1.53 µM (48 h) of -13.3% and an activation at 7.66 µM (48 h) of 6.57%. For the same molecule, the activation at 38.3 µM (48 h) was 121%, the Emax [1] was 122% and the EC50 was 11.2 µM. For the same molecule, the Emax (read-out: Max Response [%]) was 121% and the Score was 43.
`COc1ccc(C(=O)N/C(=C/c2cccnc2)C(=O)N2CCN(C)CC2)cc1OC` [Compound 92] showed an activation at 0.307 µM (48 h) of 2.57%, an activation at 1.53 µM (48 h) of 13.3% and an activation at 7.66 µM (48 h) of 54.9%. The activation at 38.3 µM (48 h) was 75%, the Emax [1] was 77% and the EC50 was 4.47 µM. The Emax (read-out: Max Response [%]) was 75%.
`COc1cccc(C(=O)NCC(=O)N2CCC3(CC2)NCCc2[nH]cnc23)c1` [Compound 93] gave an activation at 0.307 µM (48 h) of -3.47%, an activation at 1.53 µM (48 h) of 0% and an activation at 7.66 µM (48 h) of 36.3%. The activation at 38.3 µM (48 h) was 102%, the Emax [1] was 114% and the EC50 was 11.2 µM. For the same molecule, the Emax (read-out: Max Response [%]) was 102%.
In the case of `COc1ccc(-c2csc3ncnc(N4CCN(c5ccccc5[N+](=O)[O-])CC4)c23)cc1` [Compound 94], the activation at 0.307 µM (48 h) is reported as 11.5%, the activation at 1.53 µM (48 h) is reported as 8.66% and the activation at 7.66 µM (48 h) is reported as 36.5%. The activation at 38.3 µM (48 h) was 138%, the Emax [1] was 138% and the EC50 was 10 µM. The Emax (read-out: Max Response [%]) was 138% and the Score was 43.
In the case of `O=C(COc1cc2oc(=O)c3c(c2cc1Cl)CCCC3)NC[C@H]1CC[C@H](C(=O)O)CC1` [Compound 95], the activation at 0.307 µM (48 h) is reported as -12.4%, the activation at 1.53 µM (48 h) is reported as 3.06% and the activation at 7.66 µM (48 h) is reported as 36.2%. It also gave an activation at 38.3 µM (48 h) of 67.9%, an Emax [1] of 83.4% and an EC50 of 7.08 µM. It also gave an Emax (read-out: Max Response [%]) of 67.9%.
In the case of `COCCn1c(=N)c(S(=O)(=O)c2ccc(Br)cc2)cc2c(=O)n3ccccc3nc21` [Compound 96], the activation at 0.307 µM (48 h) is reported as -7.89%, the activation at 1.53 µM (48 h) is reported as 1.1% and the activation at 7.66 µM (48 h) is reported as 54.5%. For the same molecule, the activation at 38.3 µM (48 h) was 73.2%, the Emax [1] was 75% and the EC50 was 4.47 µM. It also gave an Emax (read-out: Max Response [%]) of 73.2%.
Molecule `CN(Cc1c(C(=O)N/N=C/c2cccc(F)c2)nnn1-c1nonc1N)c1ccccc1` [Compound 97] has an activation at 0.307 µM (48 h) of 1.91%, an activation at 1.53 µM (48 h) of 1.37% and an activation at 7.66 µM (48 h) of 59.1%. It also gave an activation at 38.3 µM (48 h) of 79.3%, an Emax [1] of 79.8% and an EC50 of 5.62 µM. The Emax (read-out: Max Response [%]) was 79.3%.
`COc1ccc(N(CC(=O)NCCC(C)C)C(=O)c2snc(C(=O)NC3CCCCC3)c2N)c(OC)c1` [Compound 98] was tested, and the activation at 0.307 µM (48 h) was -0.0399%, the activation at 1.53 µM (48 h) was 0.105% and the activation at 7.66 µM (48 h) was 28.9%. It also gave an activation at 38.3 µM (48 h) of 125%, an Emax [1] of 126% and an EC50 of 10 µM. It also gave an Emax (read-out: Max Response [%]) of 125%.
With `CC1(C)CC(O)=C/C(=N\c2ccc(C(=O)O)c(O)c2)C1` [Compound 99] the activation at 0.307 µM (48 h) was 0.744%, the activation at 1.53 µM (48 h) was 1.73% and the activation at 7.66 µM (48 h) was 44.4%. For the same molecule, the activation at 38.3 µM (48 h) was 114%, the Emax [1] was 121% and the EC50 was 10 µM. For the same molecule, the Emax (read-out: Max Response [%]) was 114%.
In the case of `COC(=O)c1ccccc1NC(=O)c1cc[n+]([O-])cc1` [Compound 100], the activation at 0.307 µM (48 h) is reported as -24.5%, the activation at 1.53 µM (48 h) is reported as -4.99% and the activation at 7.66 µM (48 h) is reported as 30.1%. The activation at 38.3 µM (48 h) was 56.3%, the Emax [1] was 64% and the EC50 was 3.98 µM. For the same molecule, the Emax (read-out: Max Response [%]) was 56.3%.
`CN(C)C1(C/N=C/c2cc(Cl)cc([N+](=O)[O-])c2O)CCCCC1` [Compound 101] gave an activation at 0.307 µM (48 h) of -14.2%, an activation at 1.53 µM (48 h) of -11.6% and an activation at 7.66 µM (48 h) of 43.3%. For the same molecule, the activation at 38.3 µM (48 h) was 104%, the Emax [1] was 116% and the EC50 was 8.91 µM. It also gave an Emax (read-out: Max Response [%]) of 104% and a Score of 43.
`CS(=O)(=O)Cc1cccc(C(=O)NN(c2ccccc2)c2ccccc2)c1` [Compound 102] showed an activation at 0.307 µM (48 h) of 10.3%, an activation at 1.53 µM (48 h) of 11.3% and an activation at 7.66 µM (48 h) of 24.3%. The activation at 38.3 µM (48 h) was 159%, the Emax [1] was 160% and the EC50 was 12.6 µM. The Emax (read-out: Max Response [%]) was 159%.
With `COc1ccccc1CNS(=O)(=O)c1ccc(Cl)s1` [Compound 103] the activation at 0.307 µM (48 h) was -22%, the activation at 1.53 µM (48 h) was -16.4% and the activation at 7.66 µM (48 h) was 50.2%. For the same molecule, the activation at 38.3 µM (48 h) was 91.3%, the Emax [1] was 96.9% and the EC50 was 6.31 µM. The Emax (read-out: Max Response [%]) was 91.3%.
`O=C(NCCc1ccccc1)C1CCC(=O)N1C1CCCC1` (centres unmarked) [Compound 104] showed an activation at 0.307 µM (48 h) of -6.49%, an activation at 1.53 µM (48 h) of -11.7% and an activation at 7.66 µM (48 h) of 27.3%. The activation at 38.3 µM (48 h) was 127%, the Emax [1] was 128% and the EC50 was 10 µM. For the same molecule, the Emax (read-out: Max Response [%]) was 127%.
With `NS(=O)(=O)c1ccc(NC(=O)c2cc(-c3ccccc3O)[nH]n2)cc1` [Compound 105] the activation at 0.307 µM (48 h) was 15.4%, the activation at 1.53 µM (48 h) was 17.9% and the activation at 7.66 µM (48 h) was 44.2%. The activation at 38.3 µM (48 h) was 112%, the Emax [1] was 113% and the EC50 was 10 µM. For the same molecule, the Emax (read-out: Max Response [%]) was 112%.
`COc1ccc(-c2c[nH]nc2-c2ccc(OC)cc2)cc1` [Compound 106] was tested, and the activation at 0.307 µM (48 h) was -0.495%, the activation at 1.53 µM (48 h) was 9.02% and the activation at 7.66 µM (48 h) was 40.4%. It also gave an activation at 38.3 µM (48 h) of 70.1%, an Emax [1] of 79.2% and an Emax (read-out: Max Response [%]) of 70.1%.
Molecule `Fc1ccc(-c2ccnn2-c2ccccc2)cc1` [Compound 107] has an activation at 0.307 µM (48 h) of -17.2%, an activation at 1.53 µM (48 h) of -3.24% and an activation at 7.66 µM (48 h) of 46%. For the same molecule, the activation at 38.3 µM (48 h) was 73.3%, the Emax [1] was 76.4% and the EC50 was 4.47 µM. For the same molecule, the Emax (read-out: Max Response [%]) was 73.3%.
